Laboratory results: ChEMBL document CHEMBL3217615, “Novel 3,5-bis(arylidiene)-4-piperidone based monocarbonyl analogs of curcumin: anticancer activity evaluation and mode of action study” (2014)

Assays:
Format in all cases: functional
T47D [1] = assay: Growth inhibition of human T47D cells after 48 hrs by sulforhodamine B assay; settings: for CC50: read-out: LC50 (the source's name)
[2] = Growth inhibition of human OVCAR5 cells assessed as cell growth at 10^-6 M after 48 hrs by sulforhodamine B assay; settings: OVCAR-5, 48 h, read-out: Activity
IGROV-1 = assay: Growth inhibition of human IGROV1 cells assessed as cell growth at 10^-6 M after 48 hrs by sulforhodamine B assay; settings: IGROV-1, 48 h, read-out: Activity
[3] = Growth inhibition of human UACC257 cells assessed as cell growth at 10^-6 M after 48 hrs by sulforhodamine B assay; settings: UACC-257, 48 h, read-out: Activity
SW-620 [4] = assay: Growth inhibition of human SW620 cells assessed as cell growth at 10^-6 M after 48 hrs by sulforhodamine B assay; settings: SW-620, 48 h, read-out: Activity
K562 = assay: Growth inhibition of human K562 cells assessed as cell growth at 10^-6 M after 48 hrs by sulforhodamine B assay; settings: K562, 48 h, read-out: Activity
CAKI-1 [5] = assay: Growth inhibition of human CAKI-1 cells assessed as cell growth at 10^-7 M after 48 hrs by sulforhodamine B assay; settings: CAKI-1, 48 h, read-out: Activity
T47D [6] = assay: Growth inhibition of human T47D cells assessed as cell growth at 10^-6 M after 48 hrs by sulforhodamine B assay; settings: read-out: Activity
A498 = assay: Growth inhibition of human A498 cells assessed as cell growth at 10^-6 M after 48 hrs by sulforhodamine B assay; settings: A498, 48 h, read-out: Activity
[7] = Growth inhibition of human OVCAR3 cells assessed as cell growth at 10^-4 M after 48 hrs by sulforhodamine B assay; settings: OVCAR-3, 48 h, read-out: Activity
SNB-19 = assay: Growth inhibition of human SNB19 cells assessed as cell growth at 10^-4 M after 48 hrs by sulforhodamine B assay; settings: SNB-19, 48 h, read-out: Activity
SW-620 [8] = assay: Growth inhibition of human SW620 cells assessed as cell growth at 10^-4 M after 48 hrs by sulforhodamine B assay; settings: SW-620, 48 h, read-out: Activity
HT-29 [9] = assay: Growth inhibition of human HT-29 cells assessed as cell growth at 10^-4 M after 48 hrs by sulforhodamine B assay; settings: HT-29, 48 h, read-out: Activity
HCT-116 = assay: Growth inhibition of human HCT116 cells assessed as cell growth at 10^-4 M after 48 hrs by sulforhodamine B assay; settings: HCT-116, 48 h, read-out: Activity
[10] = Growth inhibition of human HCC2998 cells assessed as cell growth at 10^-4 M after 48 hrs by sulforhodamine B assay; settings: HCC 2998, 48 h, read-out: Activity
COLO 205 [11] = assay: Induction of apoptosis in human COLO205 cells at 10 uM after 24 hrs by Annexin V/propidium iodide staining-based fluorescence microscopy
COLO 205 [12] = assay: Growth inhibition of human COLO205 cells assessed as cell growth at 10^-8 M after 48 hrs by sulforhodamine B assay; settings: COLO 205, 48 h; for growth at 0.01 µM: read-out: Activity; for TGI: read-out: pTGI (converted)
CCRF-CEM = assay: Growth inhibition of human CCRF-CEM cells assessed as cell growth at 10^-8 M after 48 hrs by sulforhodamine B assay; settings: for growth at 0.01 µM: read-out: Activity; for CC50: read-out: pLC50 (the source's name) (converted); for TGI: read-out: pTGI (converted)
[13] = Growth inhibition of human UO31 cells after 48 hrs by sulforhodamine B assay; settings: UO-31, 48 h; for CC50: read-out: LC50 (the source's name)
ACHN = assay: Growth inhibition of human ACHN cells after 48 hrs by sulforhodamine B assay; settings: for CC50: read-out: LC50 (the source's name)
CAKI-1 [14] = assay: Growth inhibition of human CAKI-1 cells after 48 hrs by sulforhodamine B assay; settings: CAKI-1, 48 h; for CC50: read-out: LC50 (the source's name)
SK-MEL-5 = assay: Growth inhibition of human SK-MEL-5 cells after 48 hrs by sulforhodamine B assay; settings: SK-MEL-5, 48 h; for CC50: read-out: LC50 (the source's name)
[15] = Growth inhibition of human SF295 cells after 48 hrs by sulforhodamine B assay; settings: SF-295, 48 h; for CC50: read-out: LC50 (the source's name)
[16] = Growth inhibition of human HCC2998 cells after 48 hrs by sulforhodamine B assay; settings: HCC 2998, 48 h; for CC50: read-out: LC50 (the source's name)
COLO 205 [17] = assay: Growth inhibition of human COLO205 cells after 48 hrs by sulforhodamine B assay; settings: COLO 205, 48 h; for CC50: read-out: LC50 (the source's name)
NCI-H322M = assay: Growth inhibition of human NCI-H322M cells after 48 hrs by sulforhodamine B assay; settings: for CC50: read-out: LC50 (the source's name)
NCI-H23 = assay: Growth inhibition of human NCI-H23 cells after 48 hrs by sulforhodamine B assay; settings: NCI-H23, 48 h; for CC50: read-out: LC50 (the source's name)
HOP-62 = assay: Growth inhibition of human HOP62 cells after 48 hrs by sulforhodamine B assay; settings: HOP-62, 48 h; for CC50: read-out: LC50 (the source's name)
[18] = Growth inhibition of human MOLT4 cells after 48 hrs by sulforhodamine B assay; settings: MOLT-4, 48 h; for CC50: read-out: LC50 (the source's name)
SK-MEL-2 = assay: Growth inhibition of human SK-MEL-2 cells assessed as cell growth at 10^-7 M after 48 hrs by sulforhodamine B assay; settings: SK-MEL-2, 48 h, read-out: Activity
M14 = assay: Growth inhibition of human M14 cells assessed as cell growth at 10^-7 M after 48 hrs by sulforhodamine B assay; settings: M14, 48 h, read-out: Activity
HT-29 [19] = assay: Growth inhibition of human HT-29 cells assessed as cell growth at 10^-7 M after 48 hrs by sulforhodamine B assay; settings: HT-29, 48 h, read-out: Activity
[20] = Growth inhibition of human NCI-ADR-RES cells assessed as cell growth at 10^-8 M after 48 hrs by sulforhodamine B assay; settings: for growth at 0.01 µM: read-out: Activity; for TGI: read-out: pTGI (converted)
[21] = Growth inhibition of human OVCAR5 cells assessed as cell growth at 10^-8 M after 48 hrs by sulforhodamine B assay; settings: OVCAR-5, 48 h; for growth at 0.01 µM: read-out: Activity; for TGI: read-out: pTGI (converted)

## O=C1/C(=C/c2ccc(Cl)cc2Cl)CN(S(=O)(=O)c2ccccc2)C/C1=C\c1ccc(Cl)cc1Cl
T47D [1]
  GI50: 1280 nM
  TGI: 100000 nM
  CC50: > 100000 nM
[2]
  growth at 1 µM: 80%
IGROV-1
  growth at 1 µM: -30%
[3]
  growth at 1 µM: 86%
SW-620 [4]
  growth at 1 µM: 4%
K562
  growth at 1 µM: 8%
CAKI-1 [5]
  growth at 0.1 µM: 92%
T47D [6]
  growth at 1 µM: 55%
A498
  growth at 1 µM: 48%
[7]
  growth at 100 µM: -65%
SNB-19
  growth at 100 µM: -23%
SW-620 [8]
  growth at 100 µM: -27%
HT-29 [9]
  growth at 100 µM: -16%
HCT-116
  growth at 100 µM: -76%
[10]
  growth at 100 µM: -66%
COLO 205 [11]
  Activity: 66%
COLO 205 [12]
  GI50: 427 nM
  LC50: > 100000 nM
  growth at 0.01 µM: 106%
  TGI: 2000 nM
CCRF-CEM
  GI50: 288 nM
  growth at 0.01 µM: 98%
  CC50: > 100000 nM
  TGI: 1000 nM
[13]
  GI50: 236 nM
  TGI: 639 nM
  CC50: 4750 nM
ACHN
  GI50: 874 nM
  TGI: 4560 nM
  CC50: > 100000 nM
CAKI-1 [14]
  GI50: 1840 nM
  TGI: 5750 nM
  CC50: > 100000 nM
SK-MEL-5
  TGI: > 100000 nM
  CC50: > 100000 nM
[15]
  GI50: 345 nM
  TGI: 6670 nM
  CC50: > 100000 nM
[16]
  GI50: 383 nM
  TGI: 1360 nM
  CC50: 4540 nM
COLO 205 [17]
  GI50: 424 nM
  TGI: 2010 nM
  CC50: > 100000 nM
NCI-H322M
  GI50: 680 nM
  TGI: 3560 nM
  CC50: > 100000 nM
NCI-H23
  GI50: 423 nM
  TGI: 2710 nM
  CC50: > 100000 nM
HOP-62
  GI50: 385 nM
  TGI: > 100000 nM
  CC50: > 100000 nM
[18]
  GI50: 594 nM
  TGI: 9050 nM
  CC50: > 100000 nM
SK-MEL-2
  growth at 0.1 µM: 111%
M14
  growth at 0.1 µM: 104%
HT-29 [19]
  growth at 0.1 µM: 101%
[20]
  GI50: 1380 nM
  LC50: > 100000 nM
  growth at 0.01 µM: 105%
  TGI: > 100000 nM
[21]
  GI50: 2140 nM
  LC50: > 100000 nM
  growth at 0.01 µM: 92%
  TGI: 7410 nM

## Cc1ccc(S(=O)(=O)N2C/C(=C\c3cc(F)cc(F)c3)C(=O)/C(=C/c3cc(F)cc(F)c3)C2)cc1
T47D [1]
  GI50: 1790 nM
  TGI: 6090 nM
  CC50: 54300 nM
[2]
  growth at 1 µM: 51%
IGROV-1
  growth at 1 µM: 18%
[3]
  growth at 1 µM: 49%
SW-620 [4]
  growth at 1 µM: -45%
K562
  growth at 1 µM: 3%
CAKI-1 [5]
  growth at 0.1 µM: 94%
T47D [6]
  growth at 1 µM: 74%
A498
  growth at 1 µM: 91%
[7]
  growth at 100 µM: -98%
SNB-19
  growth at 100 µM: -100%
SW-620 [8]
  growth at 100 µM: -74%
HT-29 [9]
  growth at 100 µM: -75%
HCT-116
  growth at 100 µM: -92%
[10]
  growth at 100 µM: -95%
COLO 205 [11]
  Activity: 70%
COLO 205 [12]
  GI50: 617 nM
  LC50: 6170 nM
  growth at 0.01 µM: 107%
  TGI: 2090 nM
CCRF-CEM
  GI50: 74.1 nM
  growth at 0.01 µM: 95%
  CC50: > 100000 nM
  TGI: 955 nM
[13]
  GI50: 1090 nM
  TGI: 2370 nM
  CC50: 5170 nM
ACHN
  GI50: 246 nM
  TGI: 622 nM
  CC50: 2390 nM
CAKI-1 [14]
  GI50: 365 nM
  TGI: 2430 nM
  CC50: 61900 nM
SK-MEL-5
  GI50: 286 nM
  TGI: 1080 nM
  CC50: 3600 nM
[15]
  GI50: 466 nM
  TGI: 2500 nM
  CC50: 15700 nM
[16]
  GI50: 602 nM
  TGI: 1910 nM
  CC50: 4850 nM
COLO 205 [17]
  GI50: 612 nM
  TGI: 2110 nM
  CC50: 6140 nM
NCI-H322M
  GI50: 4700 nM
  TGI: 22800 nM
  CC50: > 100000 nM
NCI-H23
  GI50: 1750 nM
  TGI: 4990 nM
  CC50: 26800 nM
HOP-62
  GI50: 2040 nM
  TGI: 4640 nM
  CC50: 11900 nM
[18]
  GI50: 299 nM
  TGI: 2110 nM
  CC50: > 100000 nM
SK-MEL-2
  growth at 0.1 µM: 112%
M14
  growth at 0.1 µM: 98%
HT-29 [19]
  growth at 0.1 µM: 91%
[20]
  GI50: 437 nM
  LC50: 75900 nM
  growth at 0.01 µM: 104%
  TGI: 10200 nM
[21]
  GI50: 1020 nM
  LC50: 7410 nM
  growth at 0.01 µM: 95%
  TGI: 2750 nM
